From ChEMBL document CHEMBL4673282, “Identification of a New Heterocyclic Scaffold for Inhibitors of the Polo-Box Domain of Polo-like Kinase 1” (J Med Chem, 2020)
Values after ≈ are worked out from the molar mass of the structure shown. Active and inactive are the calls of the source. The rule behind the calls is not given here.

Experiments:
[1] = target: Serine/threonine-protein kinase PLK1 (Homo sapiens, UniProt P53350); assay: Inhibition of biotin-Ahx-CETFDPPLHSpTAI-NH2 binding to recombinant human full-length HA-EGFP-tagged Plk1 PBD expressed in HEK293A cells preincubated for 30 mins followed by biotin-Ahx-CETFDPPLHSpTAI-NH2 addition and measured after 1 hr by 3,3',5,5'-tetramethylbenzidine substrate based ELISA; type: cell-based, HEK293-A
Sequence of Serine/threonine-protein kinase PLK1 (P53350 whole entry): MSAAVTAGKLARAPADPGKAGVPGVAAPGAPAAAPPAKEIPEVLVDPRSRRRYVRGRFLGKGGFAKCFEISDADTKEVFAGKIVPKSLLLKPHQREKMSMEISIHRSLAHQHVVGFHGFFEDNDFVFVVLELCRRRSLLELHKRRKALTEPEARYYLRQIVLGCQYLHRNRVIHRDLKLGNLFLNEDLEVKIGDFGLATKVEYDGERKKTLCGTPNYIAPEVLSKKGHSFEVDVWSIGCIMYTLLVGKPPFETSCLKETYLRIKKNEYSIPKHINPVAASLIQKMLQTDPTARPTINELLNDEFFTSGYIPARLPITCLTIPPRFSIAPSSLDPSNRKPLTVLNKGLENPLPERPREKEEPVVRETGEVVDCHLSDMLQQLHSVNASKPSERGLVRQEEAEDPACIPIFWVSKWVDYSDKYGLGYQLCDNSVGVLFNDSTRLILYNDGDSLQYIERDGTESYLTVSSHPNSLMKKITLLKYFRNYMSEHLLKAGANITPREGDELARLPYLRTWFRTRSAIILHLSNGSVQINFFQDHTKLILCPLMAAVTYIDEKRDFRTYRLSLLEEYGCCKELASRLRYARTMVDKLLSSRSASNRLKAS

in vitro = conditions: PAMPA
Description: Permeability of the compound by PAMPA

[2] = Half life in rat liver microsomes at 1 uM measured up to 60 mins in presence of NADPH generating system; conditions: 1 h
[3] = Aqueous solubility of compound; type: physicochemical; conditions: buffer
HeLa [4] = assay: Induction of mitotic arrest in human HeLa cells assessed as rounded cells with apoptosis at 100 uM measured after 12 hrs by DAPI staining based phase contrast microscopic analysis; type: functional, cell-based
HeLa [5] = assay: Induction of mitotic arrest in human HeLa cells assessed as apperance of aberrant chromosomal morphology at 100 uM measured after 12 hrs by DAPI staining based phase contrast microscopic analysis; type: functional, cell-based
[6] = target: Serine/threonine-protein kinase PLK3 (Homo sapiens) (UniProt Q9H4B4); assay: Inhibition of FITC-Ahx-DPPLHSpTAI-NH2 binding to Plk3 PBD (unknown origin) expressed in bacterial expression system measured after 30 mins by fluorescence polarization assay
Sequence of Serine/threonine-protein kinase PLK3 (Homo sapiens) (Q9H4B4 whole entry, looked up): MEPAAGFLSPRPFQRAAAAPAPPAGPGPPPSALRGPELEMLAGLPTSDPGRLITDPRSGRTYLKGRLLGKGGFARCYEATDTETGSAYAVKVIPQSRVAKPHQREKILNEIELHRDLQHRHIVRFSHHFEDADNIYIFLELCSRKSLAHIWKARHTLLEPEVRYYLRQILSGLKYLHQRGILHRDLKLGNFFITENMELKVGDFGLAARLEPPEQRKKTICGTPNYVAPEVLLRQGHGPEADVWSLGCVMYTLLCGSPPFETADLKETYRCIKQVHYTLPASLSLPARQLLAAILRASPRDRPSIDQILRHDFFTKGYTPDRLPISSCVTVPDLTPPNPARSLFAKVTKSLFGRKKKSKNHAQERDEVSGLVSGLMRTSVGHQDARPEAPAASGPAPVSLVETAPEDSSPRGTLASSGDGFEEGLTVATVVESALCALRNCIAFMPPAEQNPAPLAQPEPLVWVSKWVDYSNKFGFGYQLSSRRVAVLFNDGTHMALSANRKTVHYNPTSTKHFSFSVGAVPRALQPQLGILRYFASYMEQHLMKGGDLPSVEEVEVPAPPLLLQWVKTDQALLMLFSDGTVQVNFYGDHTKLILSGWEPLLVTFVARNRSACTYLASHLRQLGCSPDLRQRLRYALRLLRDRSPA

[7] = Half life in mouse cytosol; type: ADME, subcellular
[8] = Half life in human cytosol; type: ADME, subcellular
[9] = Half life in rat cytosol; type: ADME, subcellular
[10] = target: Serine/threonine-protein kinase PLK2 (Homo sapiens, UniProt Q9NYY3); assay: Inhibition of FITC-Ahx-DPPLHSpTAI-NH2 binding to Plk2 PBD (unknown origin) expressed in bacterial expression system measured after 30 mins by fluorescence polarization assay; conditions: 0.5 h
Sequence of Serine/threonine-protein kinase PLK2 (Q9NYY3 whole entry): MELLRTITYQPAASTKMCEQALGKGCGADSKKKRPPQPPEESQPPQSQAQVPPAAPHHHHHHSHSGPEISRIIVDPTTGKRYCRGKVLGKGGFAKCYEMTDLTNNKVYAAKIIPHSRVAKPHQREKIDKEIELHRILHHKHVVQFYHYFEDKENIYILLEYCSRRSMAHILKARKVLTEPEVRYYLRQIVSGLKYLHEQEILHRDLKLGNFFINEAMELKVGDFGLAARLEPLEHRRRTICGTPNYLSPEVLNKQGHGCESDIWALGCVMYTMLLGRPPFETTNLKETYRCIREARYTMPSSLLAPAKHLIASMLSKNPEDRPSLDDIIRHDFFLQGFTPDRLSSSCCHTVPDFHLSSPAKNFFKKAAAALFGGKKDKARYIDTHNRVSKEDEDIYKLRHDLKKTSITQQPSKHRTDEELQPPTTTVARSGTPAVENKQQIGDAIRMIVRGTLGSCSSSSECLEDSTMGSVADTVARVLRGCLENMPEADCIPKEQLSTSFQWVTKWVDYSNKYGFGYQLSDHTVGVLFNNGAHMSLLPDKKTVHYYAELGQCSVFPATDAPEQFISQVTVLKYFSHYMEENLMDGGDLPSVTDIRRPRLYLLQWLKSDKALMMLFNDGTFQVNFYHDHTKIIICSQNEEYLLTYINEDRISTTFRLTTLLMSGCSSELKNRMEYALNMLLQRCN

Row | Compound | Papp (in vitro) [×10⁻⁶ cm/s] | t1/2 [2] [min] | solubility [3] [µg/mL] | further results
1 | CCCn1c(=O)c2ccccc2n2c(=S)n(CC(=O)c3ccccc3)nc12 |  |  |  | IC50 [1]: > 50 µM
2 | NS(=O)(=O)CCCC(=O)NCCCn1c(=O)c2cc(F)ccc2n2c(=S)[nH]nc12 | 3 | > 30 | 42.4 (≈ 95.8 µM) | 
3 | CCCn1c(=O)c2cccc(F)c2n2c(SC)nnc12 |  |  |  | Activity (HeLa [4]): Active; Activity (HeLa [5]): Active
4 | CC(=O)Nc1ccc2c(c1)c(=O)n(CCc1ccccc1)c1n[nH]c(=S)n21 | 253 | > 30 | 2.2 (≈ 5.8 µM) | 
5 | CC(C)(C)OC(=O)NC1CCC(C(=O)NCCCn2c(=O)c3cc(F)ccc3n3c(=S)[nH]nc23)CC1 (racemic) | 330 | 24.8 | > 77 | 
6 | CCn1c(=O)c2ccccc2n2c(=S)[nH]nc12 | 427 | > 30 | > 36 | 
7 | CC(C)CCn1c(=O)c2ccccc2n2c(=S)[nH]nc12 |  |  | 8 (≈ 27.7 µM) | IC50 [1]: 1.73 µM
8 | CC(C)(C)OC(=O)NCCCCCC(=O)NCCCn1c(=O)c2cc(F)ccc2n2c(=S)[nH]nc12 | 405 | > 30 | > 75 | 
9 | O=c1c2cc(Cl)ccc2n2c(=S)[nH]nc2n1CCC(F)(F)F | 257 | > 30 | 5.1 (≈ 14.6 µM) | 
10 | CNC(=S)N1CN(CCc2ccccc2)C(=O)c2cc(F)ccc21 | 161 | 2.2 | 4.5 (≈ 13.1 µM) | 
11 | CN(C)c1ccc2c(c1)c(=O)n(CCc1ccccc1)c1n[nH]c(=S)n21 | 356 | 13.3 | < 1 | 
12 | O=c1c2cc(Br)ccc2n2c(=S)[nH]nc2n1CCc1ccccc1 | 162 | > 30 | < 1 | 
13 | O=c1c2cc(F)ccc2n2c(=S)[nH]nc2n1CCC(F)(F)F | 117 | > 30 | 17.3 (≈ 52.1 µM) | 
14 | CN(C)CCn1c(=O)c2cc(F)ccc2n2c(=S)[nH]nc12 | 117 | > 30 | > 45 | 
15 | O=c1c2cc(F)ccc2n2c(=S)[nH]nc2n1CCc1ccc(Cl)cc1 | < 1 | > 30 | 1.2 (≈ 3.2 µM) | 
16 | O=c1c2ccc(F)cc2n2c(=S)[nH]nc2n1CCc1ccccc1 | 91 | 22.7 | < 1 | 
17 | CC(=O)NCCCn1c(=O)c2cc(F)ccc2n2c(=S)[nH]nc12 | 18 | > 30 | > 50 | 
18 | NCCCn1c(=O)c2cc(F)ccc2n2c(=S)[nH]nc12.O=C(O)C(F)(F)F | < 1 | > 30 | > 43 | 
19 | O=c1c2cc(F)ccc2n2cnnc2n1CCc1ccccc1 | 924 | 11.8 | 14.8 (≈ 48 µM) | 
20 | CC(CN(C)C)n1c(=O)c2cc(F)ccc2n2c(=S)[nH]nc12 (racemic) | 186 | > 30 | > 47 | 
21 | O=c1c2cccc(F)c2n2c(=S)[nH]nc2n1CCc1ccccc1 | 141 | > 30 | 3.4 (≈ 9.99 µM) | 
22 | O=C(CN1CCOCC1)NCCCn1c(=O)c2cc(F)ccc2n2c(=S)[nH]nc12 | < 1 | > 30 | > 62 | 
23 | O=c1c2cc(F)ccc2n2c(=S)[nH]nc2n1CCN1CCC(F)(F)CC1 | 234 | > 30 | 20.2 (≈ 52.7 µM) | 
24 | O=c1c2cc(F)ccc2n2c(=S)[nH]nc2n1CCc1ccccn1 | 355 | > 30 | 13 (≈ 38.1 µM) | 

Row | Compound | Papp (in vitro) [×10⁻⁶ cm/s] | t1/2 [2] [min] | solubility [3] [µg/mL] | further results
25 | O=c1c2cc(F)ccc2n2c(=S)[nH]nc2n1CCC1CCC(F)(F)CC1 | 201 | > 30 | < 1 | 
26 | O=c1c2cc(F)ccc2n2c(=S)[nH]nc2n1CCCO | 222 | > 30 | > 43 | 
27 | O=C(NCCCn1c(=O)c2cc(F)ccc2n2c(=S)[nH]nc12)c1ccccc1 | 267 | > 30 | 21.9 (≈ 55.1 µM) | 
28 | CC(=O)N1CCC[C@H]1C(=O)N[C@@H](CC(C)C)C(=O)N[C@@H](Cc1cnc[nH]1)C(=O)N[C@@H](CO)C(=O)N[C@H](C(=O)O)[C@@H](C)OP(=O)(O)O |  |  |  | inhibition [6]: inactive
29 | CC(=O)N1CCC[C@H]1C(=O)N[C@@H](CC(C)C)C(=O)N[C@@H](Cc1cnc[nH]1)C(=O)N[C@@H](CO)C(=O)N[C@H](C(=O)O)[C@@H](C)O |  |  |  | inhibition [6]: inactive
30 | CCCCn1c(=O)c2ccccc2n2c(S)nnc12 | 77.5 | > 30 | 8.5 (≈ 31 µM) | IC50 [1]: 1.03 µM
31 | O=c1c2ccccc2n2c(=S)[nH]nc2n1CCC(F)(F)F | 82 | > 30 | 23.3 (≈ 74.1 µM) | 
32 | O=c1c2cc(F)ccc2n2c(=S)[nH]nc2n1Cc1ccccc1 | 841 | > 30 | 8.3 (≈ 25.4 µM) | 
33 | COCCCn1c(=O)c2ccccc2n2c(S)nnc12 |  |  | 31.2 (≈ 107 µM) | IC50 [1]: 1.75 µM
34 | CN1CCN(CC(=O)NCCCn2c(=O)c3cc(F)ccc3n3c(=S)[nH]nc23)CC1 | < 1 | > 30 | > 64 | 
35 | COc1cccc(CC(=O)NCCCn2c(=O)c3cc(F)ccc3n3c(=S)[nH]nc23)c1 | 300 | 20.1 |  | solubility ([3]; read-out: solubility): > 65 µg/mL
36 | O=c1c2cc(F)ccc2n2c(=S)[nH]nc2n1CCc1cccnc1 | < 1 | > 30 | 25.1 (≈ 73.5 µM) | 
37 | O=c1c2cc(F)ccc2n2c(=S)[nH]nc2n1CCN1CCOCC1 | 67 | > 30 | > 52 | 
38 | Cc1cccc(-n2c(=O)c3ccccc3n3c(S)nnc23)c1C |  |  |  | IC50 [1]: 1.85 µM
39 | CCOCCCn1c(=O)c2ccccc2n2c(S)nnc12 |  |  | 15.5 (≈ 50.9 µM) | IC50 [1]: 1.68 µM
40 | CCCn1c(=O)c2cc(F)ccc2n2c(SC)nnc12 |  |  |  | t1/2 [7]: <= 120 min; Activity (HeLa [4]): Active; t1/2 [8]: <= 120 min; Activity (HeLa [5]): Active; t1/2 [9]: <= 120 min
41 | C=CCn1c(=O)c2ccccc2n2c(S)nnc12 |  |  | 19.4 (≈ 75.1 µM) | IC50 [1]: 1.31 µM
42 | Nc1nnc2n(CCc3ccccc3)c(=O)c3cc(F)ccc3n12 | 885 | 29.4 | 2.2 (≈ 6.8 µM) | 
43 | O=C(NCCCn1c(=O)c2cc(F)ccc2n2c(=S)[nH]nc12)C1CCCC1 | 155 | > 30 | > 58 | 
44 | O=c1c2cc(F)ccc2n2c(=S)[nH]nc2n1CCN1CCCCC1 | 358 | > 30 | 2.4 (≈ 6.91 µM) | 
45 | CCCCCn1c(=O)c2ccccc2n2c(S)nnc12 |  |  | 4.2 (≈ 14.6 µM) | IC50 [1]: 1.97 µM
46 | O=c1c2cc(F)ccc2n2c(=S)[nH]nc2n1CC1CC1 | 46 | > 30 | 16.2 (≈ 55.8 µM) | inhibition [6]: inactive; inhibition (INH) [10]: Not Active
47 | O=C(O)CCC(=O)NCCCn1c(=O)c2cc(F)ccc2n2c(=S)[nH]nc12 | < 1 | > 30 | > 58 | 
